Here are results for four compounds from patent US7186863B2, “Sertraline compositions” (TransForm Pharmaceuticals, Inc., priority 2003, dated 2007).

A short description of the data set: Solubility of sertraline salt forms. The following applies: medium not given; aqueous solubility.

Counter-ions that a name gives are not always drawn.

Usually Solubility stands for the concentration that dissolves in the medium under given conditions.

Turning to `CN[C@H]1CC[C@@H](c2ccc(Cl)c(Cl)c2)c2ccccc21` [sertraline HBr salt, sertraline HBr], the Solubility worked out at 600 µg/mL.

“sertraline besylate [Sertraline besylate salt]”: the Solubility is 300 µg/mL.

On to `CN[C@H]1CC[C@@H](c2ccc(Cl)c(Cl)c2)c2ccccc21` [Sertraline lactate Form A, sertraline lactate], for which the Solubility was 1900 µg/mL.

Take “sertraline mesylate [Sertraline mesylate Form C]”: the Solubility was found to be 4200 µg/mL.
